# Source: patent publication US20210251220A1, “LICE ELIMINATOR” (priority 2018, published 2021)
# Experiment: Contact angle of spreading component
# Format: physicochemical
# Settings: 10% by weight aqueous solution, droplet on stainless steel plate, θ/2 method (JIS R3257)
# Description: It is preferred that the contact angle of the spreading component to be mixed in the lice eliminator according to the present invention is 1 to 60°. When the contact angle on a solid surface of the spreading component to be mixed in the lice eliminator according to the present invention is in this range, the lice eliminator spreads wet and is easily taken onto a louse, for example, easily adheres to and spreads out over the outer skin of a louse, without being repelled by the outer skin when brought into contact with the louse, and the effect of exterminating a louse by blocking the louse from the outside, for example, by sealing the spiracle of the louse becomes higher. It is preferred that the contact angle of the spreading component contained in the lice eliminator of the present invention is measured by a θ/2 method or the like in accordance with the method described in JIS R3257 (1999) or the like. When the spreading component is soluble in water and is solid, the contact angle as an aqueous solution, for example, at 10% by weight or the like is measured. When the spreading component is not soluble in water and is in a liquid state, the contact angle is measured as the stock solution, and when the spreading component is soluble in water and is in a liquid state, the contact angle is measured as the stock solution or an aqueous solution at 10% by weight or the like.
# A 10% by weight aqueous solution of each spreading component was prepared, and the contact angle when a droplet of the aqueous solution was put on a stainless steel plate was measured with a contact angle meter (CAX-150 manufactured by Kyowa Interface Science Co., Ltd.) by a θ/2 method in accordance with the method described in JIS R3257 (1999).
row,Compound,Contact angle (°) of agent
1,"CCCCCCCCCCCC[N+](C)(C)C.[Cl-] [compound 4, Lauryl trimethyl ammonium chloride]",36 °
2,Polyethylene glycol monolaurate [compound 9],34 °
3,Polyoxyethylene lauryl ether [compound 8],38 °
4,"CCCCCCCCCCCCOS(=O)(=O)[O-].[Na+] [compound 3, Sodium lauryl sulfate]",38 °
5,Monolauric acid polyethylene glycol [compound 10],39 °
6,"CCCCCCCCCCCCc1ccc(S(=O)(=O)[O-])cc1.[Na+] [compound 1, Sodium dodecylbenzenesulfonate]",25 °
